Results published in publication PMC11868595, “Safety, pharmacokinetics and efficacy of HA121-28 in patients with advanced solid tumors and RET fusion-positive non-small-cell lung cancer: a multicenter, open-label, single-arm phase 1/2 trial” (Signal Transduction and Targeted Therapy, 2025).
Where two headings read alike, the source gives them in different places. Marks after values point to notes of the source that are not given here.

Assays:
[1] = system: RET fusion-positive NSCLC; settings: cited from earlier work
EGFR and ERK activation = assay: EGF-stimulated activation of EGFR and ERK in A431 cells; assay type: cell-based, human; settings: 10 ng/mL EGF, concentration-dependent
SGC-7901 cells = assay: Tumor cell proliferation in vitro; assay type: cell-based, human; settings: Homo sapiens, SGC-7901; SGC7901
A498 cells = assay: Tumor cell proliferation in vitro; assay type: cell-based; settings: Homo sapiens
A431 cells = assay: Tumor cell proliferation in vitro; assay type: cell-based, human; settings: Homo sapiens, A-431, read-out: IC50, proliferation
CFPAC-1 cells = assay: Tumor cell proliferation in vitro; assay type: cell-based; settings: Homo sapiens
TT cells = assay: Tumor cell proliferation in vitro; assay type: cell-based, human; settings: Homo sapiens
BEL-7402 cells = assay: Tumor cell proliferation in vitro; assay type: cell-based; settings: Homo sapiens, Bel-7402; read-out: IC50, proliferation
HUVEC cells = assay: cells; settings: Homo sapiens
[2] = system: human gastric cancer SGC-7901 tumors; assay: SGC-7901 tumors in nude mice; assay type: in vivo
Source text: (§1) was higher than that of vandetanib .
as §1
Table S16. Efficacy of HA121-28 on human gastric cancer SGC-7901 tumors

[3] = system: human esophageal cancer KYSE-150 xenografts; assay: KYSE-150 xenografts in nude mice; assay type: in vivo
VEGFR and ERK activation = assay: VEGF165-stimulated activation of VEGFR and ERK in HUVEC cells; assay type: cell-based, human; settings: 50 ng/mL VEGF165, concentration-dependent
[4] = system: human melanoma A375 tumors; assay: A375 tumors in nude mice; assay type: in vivo
[5] = ref Phase I clinical study results of vandetanib; cited from earlier work
KYSE-150 cells = assay: Tumor cell proliferation in vitro; assay type: cell-based, human; settings: Homo sapiens, KYSE-150; read-out: IC50, proliferation
A375 cells = assay: Tumor cell proliferation in vitro; assay type: cell-based, human; settings: Homo sapiens, A-375
[6] = system: human thyroid cancer TT tumors; assay: TT tumors in nude mice; assay type: in vivo; settings: TT tumors
Source text: as §1, §1
Table S15. Efficacy of HA121-28 on human thyroid cancer TT tumors

HCT116 cells = assay: Tumor cell proliferation in vitro; assay type: cell-based; settings: Homo sapiens, HCT-116
8305C cells = assay: Tumor cell proliferation in vitro; assay type: cell-based; settings: Homo sapiens
[7] = system: human esophageal cancer ECA-109 tumors; assay: ECA-109 tumors in nude mice; assay type: in vivo; settings: 8 mg/kg

In the case of `COc1ccc(CN2C3CC2CN(c2ccc(-c4cc(OCC(C)(C)O)cn5ncc(C#N)c45)cn2)C3)cn1` [Selpercatinib], the ORR ([1]; platinum-pretreated patients ref 37) is given as 61%.
With `COc1cc2c(Nc3ccc(Br)cc3F)ncnc2cc1OCC1CCN(C)CC1` [vandetanib, reference compound] the “activation of EGFR and downstream ERK” value (EGFR and ERK activation) was “significantly inhibited”, the IC50 (SGC-7901 cells) was 4370 ± 441 nM and the IC50 (A498 cells) was 1030 ± 42.7 nM. The IC50 (A431 cells) was 1140 ± 255 nM, the IC50 (CFPAC-1 cells) was 336 ± 10 nM and the IC50 (TT cells) was 3570 ± 38.2 nM. For the same molecule, the IC50 (BEL-7402 cells) was 15100 ± 1130 nM, the IC50 (HUVEC cells) was 117 nM and the “RTV ±SD” value ([2]; 50 mg/kg) was 3.6±1.7. For the same molecule, the T/C ([2]; 50 mg/kg) was 23.0%, the “Terminal Tumor Volume” value ([2]; 50 mg/kg) was 690.9±259.8** mm^3 and the “RTV ±SD” value ([2]; 75 mg/kg) was 2.3±1.0. The T/C ([2]; 75 mg/kg) was 14.3%, the “Terminal Tumor Volume” value ([2]; 75 mg/kg) was 486.9±221.2** mm^3 and the “RTV X±SD” value ([3]; 12.5 mg/kg) was 5.2±1.9. The T/C ([3]; 12.5 mg/kg) was 34.2%, the “Terminal Tumor Volume” value ([3]; 12.5 mg/kg) was 847.0±247.2** mm^3 and the “RTV X±SD” value ([3]; 25 mg/kg) was 2.6±0.7. For the same molecule, the T/C ([3]; 25 mg/kg) was 16.8%, the “Terminal Tumor Volume” value ([3]; 25 mg/kg) was 489.8±273.9** mm^3 and the “RTV X±SD” value ([3]; 50 mg/kg) was 1.3±0.6. The T/C ([3]; 50 mg/kg) was 8.4%, the “Terminal Tumor Volume” value ([3]; 50 mg/kg) was 273.9±189.8** mm^3 and the “activation of VEGFR and downstream ERK” value (VEGFR and ERK activation) was “significantly inhibited”. The “RTV ±SD” value ([4]; 12.5 mg/kg) was 22.1±17.2, the T/C ([4]; 12.5 mg/kg) was 108.1% and the “Terminal Tumor Volume” value ([4]; 12.5 mg/kg) was 2824.1±1001.2 mm^3. The “RTV ±SD” value ([4]; 25 mg/kg) was 11.4±4.7, the T/C ([4]; 25 mg/kg) was 55.7% and the “Terminal Tumor Volume” value ([4]; 25 mg/kg) was 1719.9±822.4 mm^3. For the same molecule, the “RTV ±SD” value ([4]; 50 mg/kg) was 7.2±1.4, the T/C ([4]; 50 mg/kg) was 35.0% and the MTD [5] was 500 mg/day. The IC50 (KYSE-150 cells) was 1500 ± 135 nM, the IC50 (A375 cells) was 2190 ± 318 nM and the “RTV ±SD” value ([6]; 25 mg/kg) was 2.1±1.0. For the same molecule, the T/C ([6]; 25 mg/kg) was 34.1%, the “Terminal Tumor Volume” value ([6]; 25 mg/kg) was 302.4±91.1** mm^3 and the “RTV ±SD” value ([6]; 50 mg/kg) was 1.0±0.4. The T/C ([6]; 50 mg/kg) was 17.0%, the “Terminal Tumor Volume” value ([6]; 50 mg/kg) was 155.5±82.1** mm^3 and the “RTV ±SD” value ([6]; 75 mg/kg) was 0.5±0.2. The T/C ([6]; 75 mg/kg) was 8.9%, the “Terminal Tumor Volume” value ([6]; 75 mg/kg) was 100.1±62.5** mm^3 and the IC50 (HCT116 cells) was 3190 ± 688 nM. It also gave an IC50 (8305C cells) of 1250 ± 96.3 nM.
In the case of `N.N.[Cl][Pt][Cl]` [Cisplatin], the “RTV X±SD” value ([3]; 10 mg/kg) is reported as 5.0±3.9, the T/C ([3]; 10 mg/kg) is reported as 32.6% and the “Terminal Tumor Volume” value ([3]; 10 mg/kg) is reported as 694.4±237.4** mm^3. For the same molecule, the “RTV ±SD” value [7] was 6.4±2.9, the T/C [7] was 62.0% and the “Terminal Tumor Volume” value [7] was 1,580.0±952.4 mm^3.
In the case of `CO[C@]1(C(=O)N[C@@H](C)c2ccc(-n3cc(F)cn3)nc2)CC[C@H](c2nc(C)cc(Nc3cc(C)[nH]n3)n2)CC1` [Pralsetinib], the ORR ([1]; platinum-pretreated patients ref 38) is listed as 61%.
In the case of `N#CC1(c2ccc(NC(=O)c3cccnc3NCc3ccncc3)cc2)CCCC1` [Apatinib], the “RTV ±SD” value ([2]; 200 mg/kg) is reported as 4.2±1.2, the T/C ([2]; 200 mg/kg) is reported as 26.5% and the “Terminal Tumor Volume” value ([2]; 200 mg/kg) is reported as 793.5±324.4** mm^3.
